Results on 2 compounds are retold here after the NIST ThermoML archive (doi:10.1016/j.tca.2017.08.010).

The nature of the data set: mn = molality of the nth substance listed, in mol/kg. The note with it: 101 kPa, Liquid, Optical method.

Consider `CN1c2ccccc2Sc2ccccc21` [10-methylphenothiazine] + COC(=O)OC, for which the binary diffusion coefficient came out at 9.16e-10 m2/s (288.15 K, m1 = 0.023); 6.72e-10 m2/s (288.15 K, m1 = 0.071); 8.56e-10 m2/s (288.15 K, m1 = 0.119); 1.11e-09 m2/s (293.15 K, m1 = 0.023); 8.44e-10 m2/s (293.15 K, m1 = 0.071); 1.04e-09 m2/s (293.15 K, m1 = 0.119). Moreover, the binary diffusion coefficient runs as follows: (298.15 K, m1 = 0.023) 1.32e-09 m2/s; (298.15 K, m1 = 0.071) 1.06e-09 m2/s; (298.15 K, m1 = 0.119) 1.26e-09 m2/s; (303.15 K, m1 = 0.023) 1.54e-09 m2/s; (303.15 K, m1 = 0.071) 1.32e-09 m2/s; (303.15 K, m1 = 0.119) 1.47e-09 m2/s. In addition, the binary diffusion coefficient was found to be 1.79e-09 m2/s (308.15 K, m1 = 0.023); 1.59e-09 m2/s (308.15 K, m1 = 0.071); 1.71e-09 m2/s (308.15 K, m1 = 0.119); 2.07e-09 m2/s (313.15 K, m1 = 0.023); 1.92e-09 m2/s (313.15 K, m1 = 0.071); 1.99e-09 m2/s (313.15 K, m1 = 0.119).
Consider `[Cl-].[K+]` [potassium chloride] + O, for which the binary diffusion coefficient (298.15 K, m1 = 0.342) stood at 1.81e-09 m2/s.
